Source: patent publication US12226410B2, “Methods for enhancing cellular clearance of pathological molecules via activation of the cellular protein ykt6” (NORTHWESTERN UNIVERSITY, priority 2019, dated 2025)

Tested on: ykt6
Assay: Ykt6 membrane shift analysis (cytosol/membrane fractions) in FTI-treated cultures
Assay type: cell-based, human
Conditions: SH-SY5Y wt a-syn cells and A53T iPSn; 5 nM, 5 days
Method: FIGS. 5A, 5B, 5C, 5D, 5E, 5F, and 5G. Reducing farnesyl-ykt6 enhances SNARE assembly and improves the lysosomal targeting of GCase. 5A) Ykt6 membrane shift analysis of SH-SY5Y cells expressing GFP-ykt6 wt or CS (n=3). 5B) Co-IP of GFP-ykt6 and bet1 in A53T iPSn (n=3). 5C) Ykt6 membrane shift analysis in FTI-treated SH-SY5Y wt a-syn cells or A53T iPSn (5 nM farnesyltransferase inhibitors (FTI) LNK-754 (FTI-1) or LNK-3248 (FTI-2) for 5 days) (n=4). Sec22b was measured to assess specificity. 5D) SEC/western blot of FTI-1 treated SH-SY5Y cells. Quantification is shown below. 5E) Co-IP of GFP-ykt6 wt or mutant ykt6-SS, (cannot be palmitoylated or farnesylated) in FTI-treated SHSY5Y cells (5 nM LNK-754, 5d) (n=2). 5F) Immunofluorescence of GCase and LAMP2A in FTI-treated H4 a-syn cells transfected with scrambled (scrb) or ykt6 shRNA (n=3). Scale bar=10 um. 5G) GCase maturation analysis in FTI-treated A53T iPSn by endo H (n=3). Values are the mean+/−SEM, *p<0.05.
Separation of lysates into cytosol and membrane fractions. […] Fractions were then analyzed by western blot analysis as described below. The samples were not analyzed in a blinded manner.
Treatment of cultures with farnesyltransferase inhibitors. […] Cultures were harvested and analyzed as described in the above sections.

For `C#Cc1cccc(-c2cc(=O)n(C)c3ccc([C@](O)(c4ccc(Cl)cc4)c4cncn4C)cc23)c1` [LNK-754], the “membrane association of ykt6” value was “increased membrane association of ykt6” and the “sec22b levels (specificity)” value was “did not change”.
